Assay results: patent publication US20230119002A1, “COMPOSITIONS AND METHODS CONTAINING REDUCED NICOTINAMIDE RIBOSIDE FOR PREVENTION AND TREATMENT OF CARDIOVASCULAR DISEASES AND CONDITIONS” (SOCIETE DES PRODUITS NESTLE S.A., priority 2020, published 2023)
Structures can show the parent of a compound that is named as a salt.

Columns and labels:
[1] = Stability in isolated mouse plasma; type: in vitro ADME
Text: (§1) Levels of NRH and other NAD-related metabolites in biological samples were obtained by using a cold liquid-liquid extraction using a mixture of methanol:water:chloroform in 5:3:5 (v/v), from which the polar phase was recovered for hydrophilic interaction ultra-high performance liquid chromatography mass spectrometry (UHPLC-MS) analysis. The UHPLC consisted of a binary pump, a cooled autosampler, and a column oven (DIONEX Ultimate 3000 UHPLC+ Focused, Thermo Scientific), connected to a triple quadrupole spectrometer (TSQ Vantage, Thermo Scientific) equipped with a heated electrospray ionisation (H-ESI) source. Of each sample, 2 μL were injected into the analytical column (2.1 mm×150 mm, 5 μm pore size, 200 Å HILICON iHILIC®-Fusion(P)), guarded by a pre-column (2.1 mm×20 mm, 200 Å HILICON iHILIC®-Fusion(P) Guard Kit) operating at 35° C. The mobile phase (10 mM ammonium acetate at pH 9, A, and acetonitrile, B) was pumped at 0.25 mL/min flow rate over a linear gradient of decreasing organic solvent (0.5-16 min, 90-25% B), followed by re-equilibration for a total run time of 30 min. The MS operated in positive mode at 3500 V with multiple reaction monitoring (MRM). The software Xcalibur v4.1.31.9 (Thermo Scientific) was used for instrument control, data acquisition and processing. Retention time and mass detection was confirmed by authentic standards.
(§2) NR degradation to NAM has been proposed as a limitation for its pharmacological efficacy. To evaluate whether NRH was also susceptible to degradation to NAM, we spiked NRH or NR in isolated mouse plasma. […] We also tested the stability of NRH in other matrixes. […] Finally, we also certified NRH stability in water (pH=7, at room temperature) for 48 h.

[2] = Stability in FBS supplemented media; type: in vitro ADME
Method: as §2

[3] = Tissue NAD+ and circulating metabolites after IP injection in mice; type: in vivo; details: for NAD+ levels in liver, muscle and kidney: after 1 h
Text: as §1
The above results prompted us to test whether NRH could act as an effective NAD+ precursor in vivo. For this, we first intraperitoneally (IP) injected mice with either NR or NRH (500 mg/kg). […] Importantly, NRH was detectable in circulation after IP injection.

[4] = type: in vivo, mice
Method: 8 week-old C57BI/6NTac mice were orally gavaged with either saline (as vehicle), NR (500 mg/kg) or NRH (500 mg/kg). After 1 hour, liver, skeletal muscle and kidney NAD^+ levels were evaluated. All results are expressed as mean+/−SEM of n=5 mice per group. * indicates statistical difference at p<0.05 vs. vs. saline-treated mice. # indicates statistical difference at p<0.05 vs. NR treated mice.
as §1
Oral administration of NRH led to very similar results to those observed after IP administration. […] NRH was detectable in plasma 1 h after oral administration. In contrast, NR levels were undetectable at 1 h after NR administration.

NRK1 = test: NAD+ levels in primary hepatocytes from control or NRK1 knockout mice; details: 1 hour of treatment, NRK1 knockout mouse hepatocytes
3T3 fibroblasts = test: NAD+ levels in 3T3 fibroblasts after NRH treatment; type: cell-based
Method: (§3) The ability of NRH to potently increase NAD+ was tested as well in other cell type models.

AML12 hepatocytes = test: Intracellular NAD+ levels in AML12 hepatocytes after NRH or NR treatment; type: cell-based
Text: as §1
Even at such relatively low dose, NRH achieved similar increases in intracellular NAD+ levels to those reached with NR at 50-fold higher concentrations.
NRH actions were also extremely fast (FIG. 3), as significant increases in NAD+ levels were observed within 5 minutes after NRH treatment.

NAMPT = target: T1, NAMPT (Mus musculus, UniProt Q99KQ4); test: NRH-induced NAD+ synthesis with NAMPT inhibitor FK866; type: cell-based
T1 construct: endogenous in cells; AML12 inferred

H9C2 cardiomyocytes = test: Oxidative stress-induced cardiomyocyte cell death; type: cell-based; details: H2O2 0.25 mM or 0.5 mM for 24 hours, NRH 0.1 mM
Method: H9C2 cardiomyocytes were differentiated for 6 days and then were treated with hydrogen peroxide (H2O2; at either 0.25 mM or 0.5 mM) for 24 hrs in the presence or absence of NRH (0.1 mM). PBS was used as vehicle for NRH. After 24 hrs, cell viability was evaluated by lumiscence using a commercial kit (Cell Title-Glow; Promega). All results are expressed as meand+/−SEM of n=6 experiments. * indicates P<0.05 vs. the respective vehicle treated group.
H9C2 cardiomyocytes were differentiated for 6 days and then were treated with hydrogen peroxide (H2O2; at either 0.25 mM or 0.5 mM) for 24 hours in the presence or absence of NRH (0.1 mM). PBS was used as vehicle for NRH. After 24 hours, cell viability was evaluated by lumiscence using a commercial kit (Cell Title-Glow; Promega).

INS1-cells = test: NAD+ levels in INS1-cells after NRH treatment; type: cell-based
Method: as §3

zebrafish larvae = test: Ethanol-induced cardiac edema in zebrafish larvae; type: in vivo; details: 2% Ethanol during 20 h, NRH 500 uM co-treatment, 3 days post fertilization
Method: Phenotypic scoring of cardiac edema severity in zebrafish larvae at 3 days post fertilization exposed to 2% Ethanol during 20 h with or without NRH (500 uM) co-treatment (untreated, n=60; Ethanol, n=73; Ethanol +NRH, n=72). Statistics represented were calculated by non-parametric Chi-square test without p-value adjustment. **** p-Value<0.0001, * p-Value=0.0275.
Phenotypic scoring of cardiac edema severity in zebrafish larvae at 3 days post fertilization exposed to 2% Ethanol during 20 h with or without NRH (500 uM) co-treatment (untreated, n=60; Ethanol, n=73; Ethanol+NRH, n=72). This indicates NRH protects against ethanol-induced cardiac edema in Zebrafish.

NMNAT = test: NRH-induced NAD+ synthesis with NMNAT inhibitor gallotannin; type: cell-based
Text: As a follow-up step, NMNAT enzymes could catalyze the transition from NMNH to NADH. […] Yet, part of the NRH action remained after gallotannin treatment when NRH was used at maximal doses.

adenosine kinase (AK) = target: T2, adenosine kinase (AK) (Mus musculus, UniProt P55264); test: NRH-induced NAD+ synthesis with adenosine kinase inhibitors; type: cell-based
T2 construct: endogenous in cells; host or cells: AML12 cells
Method: AML12 cells were treated with an adenosine kinase inhibitor (5-IT; […]) for 1 hour prior to NRH treatment at the doses indicated. Then, 1 hour later, acidic extracts were obtained to measure NAD^+ levels. All values in the figure are expressed as mean+/−SEM of 3 independent experiments. * indicates statistical difference at p<0.05 vs. the respective vehicle treated group.
Considering the molecular structure of NRH, we reasoned that an alternative nucleoside kinase could be responsible for the phosphorylation of NRH. Confirming this expectation, the adenosine kinase (AK) inhibitor 5-iodotubercidin (5-IT) fully ablated the action of NRH. The role of AK in NRH-mediated NAD+ synthesis was confirmed using a second, structurally different, AK inhibitor, ABT-702. Metabolomic analyses further confirmed that upon inhibition of AK, the generation of NMNH, NADH and NAD+ was fully blunted, even if NRH was effectively entering the cell.

[5] = tested on: equilibrative nucleoside transporters (ENTs); test: NRH-induced NAD+ synthesis with ENT-mediated transport blocked by NBTI; type: cell-based; details: in the presence of NBTI (ENT blocker)
Text: In order to understand the exact path by which NRH synthesizes NAD+, we initially evaluated whether NRH, could be transported into the cell by equilibrative nucleoside transporters (ENTs).

zebrafish embryos = test: Doxorubicin-induced toxicity in zebrafish larvae; type: in vivo; details: Doxorubicin 25 uM with NRH 500 uM, up to 60 h
Method: 1 day post fertilization zebrafish embryos were placed in 24 well plates and treated with Doxorubicin (25 uM), either alone or in combination with NRH (500 uM). Untreated group was exposed to DMSO (0.05%). Health of the larvae was monitored frequently, and dead larvae were scored overtime, up to 60 h treatment. Results are expressed as percent of survival of n=60 embryos per group. Statistics represented were calculated by pairwise comparison using log-rank test and p-value adjustment was performed by Bonferroni correction. p-Value for median survival of untreated vs Doxorubicin <0.0001, p-value Doxorubicin vs Doxorubicin+NRH <0.0001.
Doxorubicin is a chemotherapeutic agent that is well established to be cardiotoxic. This drug has also been described to induce cardiomyopathy in zebrafish larvae. 1 day post fertilization zebrafish embryos were placed in 24 well plates and treated with Doxorubicin (25 uM), either alone or in combination with NRH (500 uM). Untreated group was exposed to DMSO (0.05%). Health of the larvae was monitored frequently, and dead larvae were scored overtime, up to 60 h treatment. Results are expressed as percent of survival of n=60 embryos per group.

C2C12 myotubes = test: NAD+ levels in C2C12 myotubes after NRH treatment; type: cell-based
Method: as §3

T2 sequence (P55264 whole entry): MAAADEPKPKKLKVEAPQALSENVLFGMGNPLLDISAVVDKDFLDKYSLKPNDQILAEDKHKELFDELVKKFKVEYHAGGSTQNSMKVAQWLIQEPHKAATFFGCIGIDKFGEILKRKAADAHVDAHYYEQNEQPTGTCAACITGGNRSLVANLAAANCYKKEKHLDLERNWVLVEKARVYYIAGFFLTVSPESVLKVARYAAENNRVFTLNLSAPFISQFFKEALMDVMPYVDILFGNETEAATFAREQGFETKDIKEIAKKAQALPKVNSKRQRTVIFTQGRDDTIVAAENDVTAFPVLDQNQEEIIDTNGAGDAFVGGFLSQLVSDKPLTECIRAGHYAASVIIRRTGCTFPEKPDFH
T1 sequence (Q99KQ4 whole entry): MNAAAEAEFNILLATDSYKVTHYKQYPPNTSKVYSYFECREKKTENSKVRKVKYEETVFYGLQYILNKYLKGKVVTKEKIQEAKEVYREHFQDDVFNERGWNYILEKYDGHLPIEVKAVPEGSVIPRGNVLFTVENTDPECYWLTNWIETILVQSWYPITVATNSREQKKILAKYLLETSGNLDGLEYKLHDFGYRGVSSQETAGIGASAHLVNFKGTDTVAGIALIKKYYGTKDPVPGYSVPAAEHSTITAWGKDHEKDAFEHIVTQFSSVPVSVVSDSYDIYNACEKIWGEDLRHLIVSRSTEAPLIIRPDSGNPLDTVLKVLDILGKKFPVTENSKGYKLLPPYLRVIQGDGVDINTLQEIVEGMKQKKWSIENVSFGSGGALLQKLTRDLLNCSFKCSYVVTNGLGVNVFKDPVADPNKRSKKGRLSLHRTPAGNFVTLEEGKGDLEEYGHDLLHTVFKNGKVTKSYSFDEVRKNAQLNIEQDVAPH

NC(=O)c1ccc[n+]([C@@H]2O[C@H](CO)[C@@H](O)[C@H]2O)c1 [NR, 1-b-D-ribofuranosyl-3-pyridinecarboxamide salt, reference compound]
compound levels in isolated mouse plasma ([1]; spiked, 2 h of incubation): decayed | generation of NAM in isolated mouse plasma ([1]; spiked, 2 h of incubation): increase in NAM | degradation to NAM in FBS supplemented media [2]: occurs | NAM levels in circulation ([3]; mice, IP 500 mg/kg): highly increased | NAD+ levels in liver, muscle and kidney ([3]; mice, IP 500 mg/kg): increased | circulating NAM after NR relative to after NRH treatment ([4]; C57BI/6NTac, mouse, in vivo, po, 1 h): ~4 fold | administered compound in plasma ([4]; mouse, in vivo, po): undetectable | circulating NAM ([4]; mouse, in vivo, po): large increases | NAD+ levels in NRK1KO derived primary hepatocytes (NRK1): failed to increase NAD+ levels

NC(=O)C1=CN([C@@H]2O[C@H](CO)[C@@H](O)[C@H]2O)C=CC1 [NRH]
NR production on incubation in isolated plasma [1]: did not lead to NR production | NAD+ levels (3T3 fibroblasts): highly elevated | degradation to NAM in FBS supplemented media [2]: did not degrade to NAM | intracellular NRH and NMNH (AML12 hepatocytes; 5 minutes after treatment): could be detected | concentration of maximal effects on NAD+ synthesis (AML12 hepatocytes; AML12 hepatocytes): around the millimolar range | time to significant increase in NAD+ levels after treatment (AML12 hepatocytes; AML12 hepatocytes (FIG. 3)): ≤ 5 min | NR concentration needed for similar increase in intracellular NAD+, relative to NRH (AML12 hepatocytes; AML12 hepatocytes, NRH at 10 μM): 50 fold | increase of intracellular NAD+ levels at maximal effect (AML12 hepatocytes; AML12 hepatocytes, around the millimolar range): more than 10 fold | ability to increase intracellular NAD+ (AML12 hepatocytes; AML12 hepatocytes, compared with NR): superior to that of NR | concentration at which NAD+ levels were significantly increased (AML12 hepatocytes; AML12 hepatocytes, dose-response (FIG. 2)): 10 µM | increase in intracellular NR and NMN (AML12 hepatocytes; after NRH treatment, compared with NR treatment): greater than that triggered by NR itself | dependence of action on NAMPT (NAMPT): NAMPT-independent | cell viability under oxidative stress (H9C2 cardiomyocytes): protects | NAD+ levels (INS1-cells): highly elevated | cardiac edema severity (phenotypic scoring) (zebrafish larvae): protects | NAD+ levels in liver, muscle and kidney ([3]; mice, IP 500 mg/kg): increased | NAM levels in circulation ([3]; mouse, in vivo, ip, 500 mg/kg): only a very mild increase | NR in circulation after NRH treatment versus after NR injection ([3]; mouse, in vivo, ip, 500 mg/kg): much higher levels | NRH in circulation ([3]; mouse, in vivo, ip, 500 mg/kg): detectable | effect on hepatic NAD+ levels ([4]; mice, oral administration, compared with NR): more potent effect | NRH concentration in plasma ([4]; mouse, in vivo, po): 11.16 ± 1.74 µM | administered compound in plasma ([4]; mouse, in vivo, po): detectable | NAD+ synthesis after NRH treatment with gallotannin (NMNAT; NMNAT inhibitor gallotannin, part of action remained at maximal doses (0.5 mM)): largely compromised | NRH action with gallotannin at submaximal doses (NMNAT; submaximal NRH doses): totally blocked | formation of NR and NMN after NRH treatment with 5-IT (adenosine kinase (AK); 5-IT treatment): prevented the formation of NR and NMN | action of NRH on NAD+ with 5-iodotubercidin (5-IT) (adenosine kinase (AK); AML12 cells, 5-IT 10 mM for 1 hour prior to NRH, NAD+ 1 hour later): fully ablated | generation of NMNH, NADH and NAD+ upon inhibition of AK (adenosine kinase (AK); metabolomic analyses): fully blunted | role of AK in NRH-mediated NAD+ synthesis with ABT-702 (adenosine kinase (AK); second, structurally different AK inhibitor): confirmed | capacity as extracellular NAD+ precursor [5]: largely lost its capacity | survival under doxorubicin induced toxicity (zebrafish embryos): rescues | NAD+ levels (C2C12 myotubes): highly elevated
